According to US6051582A, “Compounds useful for inhibition of farnesyl protein transferase” (Schering Corporation, priority 1998, dated 2000):

What was measured:
[1] = tested on: COS Cell; assay: COS Cell-Based Assay
Protocol: (§1) FPT IC50 (inhibition of farnesyl protein transferase, in vitro enzyme assay) and COS Cell IC50 (Cell-Based Assay) were determined following the assay procedures described in WO 95/10516, published Apr. 20, 1995. GGPT IC50 (inhibition of geranylgeranyl protein transferase, in vitro enzyme assay), Cell Mat Assay, and anti-tumor activity (in vivo anti-tumor studies) could be determined by the assay procedures described in WO 95/10516. The disclosure of WO 95/10516 is incorporated herein by reference thereto.

[2] = target: farnesyl protein transferase (Homo sapiens, UniProt P49354+P49356); assay: FPT inhibition, in vitro enzyme assay; assay type: biochemical
Protocol: as §1

farnesyl protein transferase, sequence (P49356 whole entry, one chain of several): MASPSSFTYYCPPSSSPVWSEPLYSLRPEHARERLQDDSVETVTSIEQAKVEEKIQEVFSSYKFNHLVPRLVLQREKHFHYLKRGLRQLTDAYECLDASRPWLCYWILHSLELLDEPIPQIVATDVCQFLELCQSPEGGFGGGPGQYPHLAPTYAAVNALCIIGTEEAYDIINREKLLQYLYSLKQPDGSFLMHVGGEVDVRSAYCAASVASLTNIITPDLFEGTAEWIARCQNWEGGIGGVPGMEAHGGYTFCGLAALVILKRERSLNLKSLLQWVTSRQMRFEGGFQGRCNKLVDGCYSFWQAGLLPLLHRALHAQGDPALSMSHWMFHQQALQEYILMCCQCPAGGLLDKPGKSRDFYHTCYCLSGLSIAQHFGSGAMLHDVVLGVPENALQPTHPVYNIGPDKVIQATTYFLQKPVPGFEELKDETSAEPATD

Structure (SMILES): CC1(CC(=O)N2CCC([C@H]3c4ncc(Br)cc4CCc4cc(Cl)cc(Br)c43)CC2)CCN(S(C)(=O)=O)CC1 [Example 1]
- IC50 [1]: 22 nM
- IC50 [2]: 19 nM
